Laboratory results published in article PMC5522529, “Mechanisms of Paradoxical Activation of AMPK by the Kinase Inhibitors SU6656 and Sorafenib” (Cell Chemical Biology, 2017).

Tests used:
AMPK-α1 AA mutant = biological target: T1, AMPK-α1 AA mutant (Homo sapiens, UniProt Q13131, K40A/K42A); assay: AMPK activity of FLAG-tagged AMPK-α1 K40A/K42A (AA) mutant expressed in HEK293 cells; format: cell-based; conditions: AA mutant FLAG-α1; same concentrations, 1 hr
T1 construct: Plasmid encoding full-length human AMPK-α1; expressed in transfected cells; host or cells: HEK293
Description: (§1) (B) Western blotting of the same preparations as in (A). […] (D) Allosteric activation of WT and mutant α1β1γ1 complexes by MT 63-78, curve fitting as for (C). […] (E) Allosteric activation of WT and mutant α1β1γ1 complexes by AMP. Data were fitted to the equation for activation/inactivation by AMP ([Gowans et al., 2013]). […] (F) Activation of WT and AA mutant by various AMPK activators in HEK293 cells. […] FLAG-tagged complexes were isolated by immunoprecipitation and AMPK activity determined (mean ± SEM, n = 2).
(§2) We next expressed the FLAG-tagged WT or AA mutant of AMPK-α1 by transient transfection in HEK293 cells, treated with various agents, and measured AMPK activity in anti-FLAG immunoprecipitates. In Figure 4F, the results are expressed as absolute activities and are accompanied by blots showing Thr172 phosphorylation.

[1] = biological target: T2, endogenous full-length α1 complexes (Homo sapiens, UniProt Q13131); assay: Activity of endogenous full-length α1 complexes in HEK293 cells; format: cell-based; conditions: 1 hr
T2 construct: endogenous in cells
Description: (§3) We next expressed an FLAG-tagged α1 kinase domain (α1-KD, residues 1–312) by transient transfection in HEK293 cells, treated the cells with various AMPK activators, and then assayed both the expressed α1-KD (precipitated using anti-FLAG) and endogenous full-length α1 complexes (precipitated using anti-α1 antibodies recognizing an epitope outside the α1-KD). […] This was also observed with A23187, as expected since this ionophore increases intracellular Ca^2+ and activates the alternate upstream kinase CaMKK2.
(§4) The α1-KD was precipitated using anti-FLAG and endogenous AMPK complexes using anti-α1 antibody, and activity determined. Results (mean ± SD, n = 2) are expressed relative to activities in DMSO controls. (B) Western blots (n = 2) using the indicated antibodies; samples from experiment in (A). (C) DNAs encoding FLAG-tagged AMPK-α1 (WT or AT mutant) were expressed by transient transfection in HEK293 cells, the cells treated with increasing concentrations of SU6656 for 1 hr, AMPK complexes precipitated with anti-FLAG, and activity measured. Results (mean ± SD, n = 3) are expressed relative to the DMSO control. […] Results (mean ± SD, n = 3) are expressed relative to the DMSO control. **p < 0.01, ***p < 0.001, ****p < 0.0001, ^†††p < 0.001; ns, not significant.

[2] = biological target: T3, α1 kinase domain (α1-KD, residues 1–312) (Homo sapiens, UniProt Q13131); assay: Activity of FLAG-tagged α1 kinase domain expressed in HEK293 cells; format: cell-based; conditions: 1 hr
T3 construct: amplifying residues 1-312 with an N-terminal FLAG-tag; expressed in transfected cells; host or cells: HEK293 (transient transfection, pcDNA5 FRT)
Description: as §3, §4
A plasmid encoding the AMPK-α2 kinase domain (α2-KD) was made by amplifying residues 1-310 with 5' BamH1 and 3' Xho1 sites, the resulting PCR product was cloned into pGEX6P2. Point mutations were generated using the Quikchange II site-directed mutagenesis kit (Stratagene) and confirmed by DNA sequencing.

AMPK-α1 (WT) = biological target: T4, AMPK-α1 (WT) (Homo sapiens, UniProt Q13131); assay: AMPK activity of FLAG-tagged AMPK-α1 (WT) expressed in HEK293 cells; format: cell-based; conditions: 1 hr; for AMPK activity and Thr172 phosphorylation: WT FLAG-α1, A769662 300 μM, berberine 300 μM, phenformin 10 mM, troglitazone 100 μM, oligomycin 1 μM, SU6656 100 μM
T4 construct: we expressed FLAG-tagged full-length AMPK-α1 either as the WT or the AT mutant; expressed in transfected cells; host or cells: HEK293
Description: as §1, §2
The α1-KD was precipitated using anti-FLAG and endogenous AMPK complexes using anti-α1 antibody, and activity determined. […] (B) Western blots (n = 2) using the indicated antibodies; samples from experiment in (A). (C) DNAs encoding FLAG-tagged AMPK-α1 (WT or AT mutant) were expressed by transient transfection in HEK293 cells, the cells treated with increasing concentrations of SU6656 for 1 hr, AMPK complexes precipitated with anti-FLAG, and activity measured.

[3] = biological target: T5, human α1β1γ1 complex with K40A mutation in α1 (Homo sapiens, UniProt P54619+Q13131+Q9Y478, K40A); assay: Allosteric activation of α1β1γ1 complex, K40A mutant; format: biochemical
T5 construct: made in house; host or cells: Escherichia coli
Description: (§5) We next tested whether SU6656 activates AMPK by binding at the ADaM site. […] We therefore expressed WT or single (K40A, K42A) or double (K40A/K42A, AA) α1 mutants in the context of the human α1β1γ1 complex (Figure 4A).
as §1
(§6) Endogenous AMPK was immunoprecipitated using the specified antibodies (for total AMPK, an equal mixture of anti-α1 and –α2 antibodies) and assayed at 200 μM ATP ([Hardie et al., 2000], [Towler et al., 2008]) using the AMARA peptide ([Dale et al., 1995]) as substrate, except for assays of allosteric activation by AMP (Figure 5A) where the SAMS peptide was used as substrate with 2 mM ATP ([Gowans et al., 2013]). The AMPK-related kinases SIK1, SIK2, SIK3, SNARK, MARK2/3 and MARK4 were immunoprecipitated and assayed as previously described ([Lizcano et al., 2004]) in lysates of Hela cells stably expressing LKB1 ([Fogarty et al., 2010]). LKB1 was assayed using the LKBtide peptide as substrate ([Sakamoto et al., 2004]).
(§7) Data were fitted to the specified equations by non-linear regression using GraphPad Prism 6 for Mac OSX.

[4] = biological target: T6, human α1β1γ1 complex with K40A/K42A (AA) mutations in α1 (Homo sapiens, UniProt P54619+Q13131+Q9Y478, K40A/K42A); assay: Allosteric activation of α1β1γ1 complex, K40A/K42A (AA) mutant; format: biochemical
T6 construct: made in house; host or cells: Escherichia coli
Description: as §5, §1, §6, §7

AMPK-γ2 (WT) = biological target: T7, AMPK-γ2 (WT) (Homo sapiens, UniProt Q9UGJ0); assay: AMPK activity in HEK293 cells expressing WT AMPK-γ2; format: cell-based; conditions: 1 hr
T7 construct: expressed in transfected cells; host or cells: Flp-In T-REx 293 (HEK293), tetracycline-inducible
Description: (§8) The next possibility was that, like several other AMPK-activating drugs, SU6656 inhibits mitochondrial ATP synthesis, and thus activates AMPK indirectly by increasing cellular AMP/ADP. To test this, we used cell lines inducibly expressing either WT AMPK-γ2 or an AMP/ADP-resistant R531G (RG) mutant ([Hawley et al., 2010]). […] There were no effects of SU6656 on cellular oxygen uptake, unlike berberine. Subsequent addition of the uncoupler 2,4-dinitrophenol (DNP), which prevents the respiratory chain from being limited by ADP supply, increased oxygen uptake identically in control and SU6656-treated cells but had no effect following berberine, as expected for a complex I inhibitor (Figure S2).
(§9) (B) WT or RG cells were treated as in (A) and nucleotides extracted for analysis (mean ± SD, n = 3). […] (E) (See also Figure S2) Time courses of cellular oxygen uptake before and after addition of the indicated concentrations of sorafenib (SO, μM), SU6656 (100 μM) or phenformin (PHEN, 10 mM) (mean ± SEM, n = 4). (F) Effect of various concentrations of sorafenib or phenformin (10 mM) on activation (top, mean ± SEM, n = 3) or phosphorylation (bottom) of AMPK in cells expressing wild-type AMPK-γ2 (WT) or the R531G mutant AMPK-γ2 (RG). In all panels, asterisks show significant differences from DMSO controls (ns, not significant). In (B), daggers (†) show significant differences between results in WT and RG cells. *p < 0.05, **p < 0.01, ***p < 0.001, ****p < 0.0001, ^††††p < 0.0001.
(§10) HEK-293 cells stably expressing tetracycline-inducible FLAG-tagged human AMPK-γ2, or an R531G mutant, were generated by introducing the corresponding DNAs into Flp-In™ T-REx™ 293 cells ([Auciello et al., 2014]). Expression of the FLAG-tagged constructs was induced for 48 hr using tetracycline (1 μg.ml^-1) prior to addition of compounds under test. Transient transfections were carried out 36-48 hr prior to experiments, using Fugene 6 according to manufacturers’ instructions.

[5] = biological target: T8, human α1β1γ1 complex with K42A mutation in α1 (Homo sapiens, UniProt P54619+Q13131+Q9Y478, K42A); assay: Allosteric activation of α1β1γ1 complex, K42A mutant; format: biochemical
T8 construct: made in house; host or cells: Escherichia coli
Description: as §5, §1, §6, §7

human α1β1γ1 complex = biological target: T9, human α1β1γ1 complex (Homo sapiens, UniProt P54619+Q13131+Q9Y478); assay: Allosteric activation of bacterially expressed human α1β1γ1 complex, WT; format: biochemical
T9 construct: made in house; host or cells: Escherichia coli
Description: as §5, §1, §6, §7

[6] = biological target: T10, AMPK-γ2 R531G (RG) mutant (Homo sapiens, UniProt Q9UGJ0, R531G); assay: AMPK activity in HEK293 cells expressing R531G AMPK-γ2; format: cell-based; conditions: 1 hr
T10 construct: expressed in transfected cells
Description: as §8, §9, §10

T4 sequence (Q13131 whole entry): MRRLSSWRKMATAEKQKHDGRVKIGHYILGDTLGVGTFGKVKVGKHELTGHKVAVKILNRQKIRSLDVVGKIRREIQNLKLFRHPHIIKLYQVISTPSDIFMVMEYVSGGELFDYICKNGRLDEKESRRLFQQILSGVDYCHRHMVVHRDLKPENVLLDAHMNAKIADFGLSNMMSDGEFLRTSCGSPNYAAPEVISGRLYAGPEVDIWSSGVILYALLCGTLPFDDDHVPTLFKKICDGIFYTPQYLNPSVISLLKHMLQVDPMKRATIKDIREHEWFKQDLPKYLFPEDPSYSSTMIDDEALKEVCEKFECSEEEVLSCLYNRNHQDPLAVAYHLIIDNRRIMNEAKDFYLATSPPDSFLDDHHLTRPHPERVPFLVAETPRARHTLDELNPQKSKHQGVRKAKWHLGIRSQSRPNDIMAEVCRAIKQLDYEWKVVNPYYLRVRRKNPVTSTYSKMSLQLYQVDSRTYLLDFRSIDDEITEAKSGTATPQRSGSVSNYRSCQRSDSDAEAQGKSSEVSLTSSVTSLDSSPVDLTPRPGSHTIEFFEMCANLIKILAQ
T4 sequence (P54619 whole entry partner): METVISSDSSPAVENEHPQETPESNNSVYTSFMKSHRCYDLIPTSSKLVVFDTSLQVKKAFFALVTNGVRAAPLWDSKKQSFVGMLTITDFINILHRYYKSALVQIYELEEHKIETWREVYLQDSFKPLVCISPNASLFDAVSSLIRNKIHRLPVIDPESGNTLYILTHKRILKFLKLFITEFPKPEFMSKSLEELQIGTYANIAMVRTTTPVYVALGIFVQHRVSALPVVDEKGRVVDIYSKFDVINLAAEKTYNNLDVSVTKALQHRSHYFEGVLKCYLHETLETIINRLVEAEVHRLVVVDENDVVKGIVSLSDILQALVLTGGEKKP
T5 sequence (Q13131 whole entry K40A): as the sequence (Q13131 whole entry) above, with K40A counted along it
T5 sequence (Q9Y478 whole entry): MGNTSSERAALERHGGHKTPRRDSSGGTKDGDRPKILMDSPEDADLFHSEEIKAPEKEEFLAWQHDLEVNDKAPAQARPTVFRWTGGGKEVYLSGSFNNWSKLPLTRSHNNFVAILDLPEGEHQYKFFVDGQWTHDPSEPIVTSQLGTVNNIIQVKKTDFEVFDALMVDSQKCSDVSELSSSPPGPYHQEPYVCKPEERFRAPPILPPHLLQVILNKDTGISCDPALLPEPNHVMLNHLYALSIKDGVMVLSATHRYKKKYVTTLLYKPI
T5 sequence (P54619 whole entry): as the sequence (P54619 whole entry partner) above
T2 sequence (Q13131 whole entry): as the sequence (Q13131 whole entry) above
T2 sequence (P54619 whole entry partner): as the sequence (P54619 whole entry partner) above
T9 sequence (Q13131 whole entry): as the sequence (Q13131 whole entry) above
T9 sequence (Q9Y478 whole entry): as the sequence (Q9Y478 whole entry) above
T9 sequence (P54619 whole entry): as the sequence (P54619 whole entry partner) above
T6 sequence (Q13131 whole entry K40A/K42A): as the sequence (Q13131 whole entry) above, with K40A, K42A counted along it
T6 sequence (Q9Y478 whole entry): as the sequence (Q9Y478 whole entry) above
T6 sequence (P54619 whole entry): as the sequence (P54619 whole entry partner) above
T1 sequence (Q13131 whole entry K40A/K42A): as the sequence (Q13131 whole entry) above, with K40A, K42A counted along it
T1 sequence (P54619 whole entry partner): as the sequence (P54619 whole entry partner) above
T7 sequence (Q9UGJ0 whole entry): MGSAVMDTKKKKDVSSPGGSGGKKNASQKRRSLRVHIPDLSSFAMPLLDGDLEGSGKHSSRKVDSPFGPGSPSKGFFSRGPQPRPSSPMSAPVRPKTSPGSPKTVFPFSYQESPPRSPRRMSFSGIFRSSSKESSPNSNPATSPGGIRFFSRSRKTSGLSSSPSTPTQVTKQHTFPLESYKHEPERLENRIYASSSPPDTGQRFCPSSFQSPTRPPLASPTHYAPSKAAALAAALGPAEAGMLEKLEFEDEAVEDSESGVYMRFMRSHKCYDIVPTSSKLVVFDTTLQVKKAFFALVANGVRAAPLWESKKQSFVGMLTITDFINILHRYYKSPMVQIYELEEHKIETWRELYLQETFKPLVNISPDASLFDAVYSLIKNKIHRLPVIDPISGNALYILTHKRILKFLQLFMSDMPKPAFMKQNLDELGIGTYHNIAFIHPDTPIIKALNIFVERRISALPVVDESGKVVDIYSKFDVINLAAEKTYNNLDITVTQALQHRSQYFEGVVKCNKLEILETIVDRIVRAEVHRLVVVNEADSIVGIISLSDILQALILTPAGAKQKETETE
T3 sequence (Q13131 1-312): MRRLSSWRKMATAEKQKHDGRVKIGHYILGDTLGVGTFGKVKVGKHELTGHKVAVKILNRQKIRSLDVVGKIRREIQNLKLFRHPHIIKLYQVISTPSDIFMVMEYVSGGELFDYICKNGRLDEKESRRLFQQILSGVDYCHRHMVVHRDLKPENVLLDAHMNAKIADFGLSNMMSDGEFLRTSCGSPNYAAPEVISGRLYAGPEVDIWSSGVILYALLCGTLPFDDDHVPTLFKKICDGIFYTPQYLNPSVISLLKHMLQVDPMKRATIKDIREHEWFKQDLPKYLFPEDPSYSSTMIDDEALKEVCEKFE
T8 sequence (Q13131 whole entry K42A): as the sequence (Q13131 whole entry) above, with K42A counted along it
T8 sequence (Q9Y478 whole entry): as the sequence (Q9Y478 whole entry) above
T8 sequence (P54619 whole entry): as the sequence (P54619 whole entry partner) above
T10 sequence (Q9UGJ0 whole entry R531G): as the sequence (Q9UGJ0 whole entry) above, with R531G counted along it

effect of AA mutation on AMPK activation (AMPK-α1 AA mutant)	kinase activity / Thr172 phosphorylation [1]	Activation (maximal allosteric activation) [3] [fold]	EC50 [3] [nM]	Activation (maximal allosteric activation) [4] [fold]	EC50 [4] [nM]	AMPK activity (AMPK-γ2 (WT))	Activation (maximal allosteric activation) [5] [fold]	Activation (maximal allosteric activation) (human α1β1γ1 complex; not phosphorylated on Thr172, relative to basal activity) [fold]	EC50 (human α1β1γ1 complex; read-out: EC50 (concentration causing half-maximal effect)) [nM]	AMPK activity [6]	AMPK activity (AMPK-α1 (WT); WT FLAG-α1 (comparison with AT mutant))	Structure (SMILES)	kinase activity / Thr172 phosphorylation [2]	AMPK activity and Thr172 phosphorylation (AMPK-α1 (WT))
abolished	doing this with the endogenous complexes	–	–	–	–	–	–	–	–	–	–	Cc1c(C)c2c(c(C)c1O)CCC(C)(COc1ccc(CC3SC(=O)NC3=O)cc1)O2 (centres unmarked) [troglitazone]	failed to activate or cause Thr172 phosphorylation	activated AMPK and caused Thr172 phosphorylation
completely prevented	not statistically significant	18 ± 0.7	4000 ± 700	1.0 ± 0.03	1 ± 2	activated AMPK in both	21 ± 0.6	38 ± 1	1000 ± 100	activated AMPK in both	did not cause a significant activation	N#Cc1c(O)c2c(-c3ccc(-c4ccccc4O)cc3)csc2[nH]c1=O [A769662]	–	activated AMPK and caused Thr172 phosphorylation
